Measurements as given in paper PMC7429318 (Journal of controlled release : official journal of the …, 2020).

Tested on: MDCKII cells
Experiment: Transwell permeability assay across MDCKII monolayer
Type: in vitro ADME, canine
Settings: transwell (2D), LY 100 μM

Lucifer yellow CH-lithium salt [LY]
permeability in transwell assay (2D): about 3 × 10^−7 cm s^−1
